This experiment concerns isolated human pDCs. Kind of experiment: P. falciparum nuclear extract-induced IFNα production in human pDCs. The settings on record: for IFNα level: nuclear extract. It counts as cell-based. How it is done: Human PBMCs were prepared using Buffy Coats as source material from healthy donations (approx. 50 ml obtained from Blutspendezentrum SRK Basel) and processed as indicated above. Fresh PBMCs were resuspended and diluted in RoboSep™ buffer (PBS containing 2% v/v FBS, 1 mM EDTA (Gibco #15575-038) to obtain a final concentration of 50×10^6 PBMCs/ml. Human pDCs (negative selection) were isolated using plasmacytoid DC Enrichment kit (Stemcell, #19062) using an automation RobSep™ station as described according to manufacturer protocols. Typical pDC yields were approx. 0.1% of total PBMCs and with a purity>90%. Isolated pDCs were diluted to 4×10^5 cells/ml and seeded in 384-well plates (#353962; Becton Dickinson AG) to give a final volume of 25 μl (i.e. 1×10^4 cells/well). For stimulation using malaria nuclear extact (see below), pDCs were seeded at a final concentration of 5×10^4 cells/well.
The preparation of the nuclear extract of plasmodium falciparum was performed according to Gowda et al [Gowda et al. “The Nucleosome (Histone-DNA Complex) Is the TLR9-Specific Immunostimulatory Component of Plasmodium falciparum That Activates DCs”, PLoS ONE 2011]. In brief, Plasmodium falciparum 3D7 parasites were cultured in human red blood cell at 2% hematocrit. When the parasite was at late trophozoite and schizont stages, the infected red blood cells (IRBCs) were harvested by centrifugation and the pellets were re-suspended in 20 volumes of 0.1% saponin (m/v) in PBS, pH 7.2. The re-suspension was incubated on ice for 10 minutes and centrifuged at 2,500 g at 4° C. for 15 min. The pellet was re-suspended in the above solution, incubated on ice for 10 min and centrifuged at 2,500 g at 4° C. for 15 min. The parasite pellet thus obtained was washed 3 times with cold PBS, pH 7.2, by centrifugation. Each time 35 ml of cold PBS was used. The pellet obtained after the last centrifugation was suspended in 10 volumes of lysis buffer (20 mM HEPES, pH 7.5, 10 mM KCl, 1 mM EDTA, 1 mM dithiothreitol, 1 mM phenylmethylsulfonyl fluoride (PMSF) and 1% Triton X-100) and incubated on ice for 5 min. The suspension was centrifuged at 5,000 g at 4° C. for 10 min, and nuclear material was washed three times with the lysis buffer to remove membrane components. The nuclear material was re-suspended in PBS, pH 7.2. Insoluble material was subsequently solubilized by using a water-bath sonicator.
Compounds were pre-diluted in 100% v/v DMSO (#41640-100 mL; Sigma-Aldrich), followed by transfer in Media (to achieve a final DMSO concentration of 0.25%). Cells were treated with appropriate compound dilution (5 μl) or vehicle control (5 μl) and incubated for 30 min at 37° C. in a humidified incubator in air with 5% (v/v) CO2. Cells were stimulated with CpG2216 (0.3 μM; #tlrl-hodna; Invivogen), malaria nuclear extract (2.5 μg/ml; see above for preparation) or vehicle control (10 μl/well) and incubated for 20 h. Plates were briefly centrifuged (200×g for 2 min at 22° C.) and supernatant samples (30 μl) removed for quantification of IFNα levels.
For quantification of IFNalpha the human interferon AlphaLISA Kit (#AL264F) from PerkinElmer was used. An antibody mix containing anti-IFNα acceptor beads (5 μg/ml final) and biotinylated antibody anti-IFNα(0.5 nM final) is prepared fresh and dispensed (5 μl) into 384-well Optiplates™ (#6007299; PerkinElmer). Dilution of known IFNα standards (human IFNα B (2b)) were prepared and together with cell supernatants (5 μl) were added to plates above. Plates were briefly centrifuged (pulse at 200 g), covered with adhesive sealing film, vortexed and incubated 1 h at room temperature in the dark. Streptavidin-coated donor beads (20 μg/ml final) was prepared and added to each well (5 μl) in a dark lit area (light sensitive mix). Plates were incubated 30 min at room temperature (Plates must not be centrifuged or covered). […]

Regarding `CCC(=O)N1CC[C@H](Nc2ncnc3c2CN(c2cnc(OC)c(C(F)(F)F)c2)CC3)C1` [Example 67, 1-{(S)-3-[6-(6-Methoxy-5-trifluoromethyl-pyridin-3-yl)-5,6,7,8-tetrahydro-pyrido[4,3-d]pyrimidin-4-ylamino]-pyrrolidin-1-yl}-propan-1-one], the inhibition at 0.01 µM (compound 0.01 μM, read-out: % inh. of IFNα by nuclear extract) is 25%. In addition, the inhibition at 0.1 µM (compound 0.1 μM, read-out: % inh. of IFNα by nuclear extract) turned out to be 64%. The inhibition at 1 µM (compound 1 μM, read-out: % inh. of IFNα by nuclear extract) was 77%. For the same molecule, the “IFNα level” value came out at 4084 pg/mL (compound 0.01 μM), 2110 pg/mL (compound 0.1 μM) and 1483 pg/mL (compound 1 μM).

For the origin of these results see patent US9949979B2, “Use of inhibitors of the activity or function of PI3K” (NOVARTIS AG, priority 2011, dated 2018).
